Results published in patent US20090281040A1, “Methods For Treating Endoplasmic Reticulum (ER) Stress Disorders” (priority 2008, published 2009).
Where a SMILES comes first, the peptide text is derived from it. The star is where a group is joined. Cbz = O=C(OCc1ccccc1)*

What was measured:
AATF mRNA [1] = assay: AATF mRNA expression by real-time PCR in cells treated with ER stress inducers; assay type: cell-based, rat; mouse; details: for AATF mRNA expression: INS-1 832/13, neuro2A cells and mouse embryonic fibroblasts, 16 hr, TM 5 μg/ml, Tg 1 μM, MG132 2 μM, STR 0.05 and 0.01 μM
Method: Cell culture and transfection of small interfering RNA. Rat insulinoma cells, INS-1 832/13, were a gift from Dr. Christopher Newgard (Duke University Medical Center). These cells were cultured in RPMI 1640 supplemented with 10% FBS. Mouse embryonic fibroblasts, COS7 cells, and Neuro2a cells were maintained in DMEM with 10% fetal bovine serum. Human neuroblastoma cells, SH-SY5Y cells, were cultured in DMEM/F12 with 10% fetal bovine serum.
(§1) Real-time polymerase chain reaction. Total RNA was isolated from cells using RNeasy Mini Kit (Qiagen) and reverse transcribed using 1 μg of total RNA from cells with Oligo-dT primer. For the thermal cycle reaction, the iQ5 system (BioRad, Hercules, Calif.) was used at 95° C. for 10 min, 40 cycles at 95° C. for 10 sec, and at 55° C. for 30 sec.
The relative amount for each transcript was calculated by a standard curve of cycle thresholds for serial dilutions of cDNA samples and normalized to the amount of actin. The polymerase chain reaction (PCR) was done in triplicate for each sample, after which all experiments were repeated twice. The following sets of primers and Power SYBR Green PCR Master Mix (Applied Biosystems, Foster City, Calif.) were used for real-time PCR: […]

AATF mRNA [2] = assay: AATF mRNA by real-time PCR in wild-type, Ire1α−/− and Perk−/− mouse embryonic fibroblasts; assay type: cell-based; details: for attenuation of the induction of AATF: Ire1α−/− cells versus wild-type; for induction of AATF: Perk−/− mouse embryonic fibroblasts versus wild-type
Method: as §1
(§2) The relative amount for each transcript was calculated by a standard curve of cycle thresholds for serial dilutions of cDNA samples and normalized to the amount of actin. The polymerase chain reaction (PCR) was done in triplicate for each sample, after which all experiments were repeated twice. The following sets of primers and Power SYBR Green PCR Master Mix (Applied Biosystems, Foster City, Calif.) were used for real-time PCR:
The pathway by which AATF expression is regulated was investigated. IRE 1 and PERK are ER-resident protein kinases and regulators of the UPR. The expression levels of AATF were measured by real-time PCR in Ire1α^−/− and Perk^−/− mouse embryonic fibroblasts under ER stress conditions. […] To confirm this, Perk^−/− mouse embryonic fibroblasts were transfected with PERK expression plasmid, then AATF gene expression was measured. Chop expression was also measured as a control. PERK expression could restore both AATF and Chop expression (FIG. 2D).

WFS1-ATF6 complex = assay: WFS1-ATF6 co-immunoprecipitation in INS-1 832/13 cells; assay type: cell-based, rat
Method: Both WFS1 and ATF6 are transmembrane proteins localized to the ER. The association of WFS1 with ATF6 in INS-1 832/13 cells was examined. An anti-WFS1 antibody was used to immunoprecipitate (IP) WFS1 from INS-1 832/13 cells untreated (UT) or treated with the ER stress inducer DTT (1 mM) for 0.5 hr, 1.5 hr, or 3 hr. Immunoprecipitates were then subject to immunoblot (IB) analysis using anti-ATF6, anti-WFS1, and anti-actin antibodies. […] To confirm that the interaction between WFS1 and ATF6 is recovered post-stress, an anti-WFS1 antibody was used to immunoprecipiate (IP) WFS1 from INS-1 832/13 cells untreated (UT) or treated with the ER stress inducer DTT (1 mM) for 2 hr. The cells were then chased in normal media for 0 hr and 3 hr. Immunoprecipitates were subject to immunoblot (IB) analysis using anti-ATF6, anti-WFS1, and anti-actin antibodies. The relative amount of ATF6 protein was quantified using ImageJ software.

Akt1 mRNA = Akt1 mRNA expression by real-time PCR; assay type: cell-based, rat; mouse; details: Tg 1 μM
Method: as §1, §2
Whether Akt1 expression is increased by ER stress was examined. The expression levels of Akt1 mRNA were measured in the presence of ER stress in INS-1 832/13, neuro2A, and mouse embryonic fibroblasts.

eIF2α phosphorylation = eIF2α phosphorylation immunoblot in mouse embryonic fibroblasts; assay type: cell-based; design: dose or concentration left out as unconfirmed; details: 16 hr
Method: (§3) Immunoblotting. Cells were lysed for 15 min on ice at 4° C. in ice-cold M-PER buffer (PIERCE, Rockford, Ill.) containing protease inhibitors. The lysates were then cleared by centrifuging the cells at 13,000 g. Lysates were normalized for total protein, separated by SDS-PAGE (15% gel or 5%-20% gradient gel), and transferred onto a polyvinylidene difluoride membrane. To detect human AATF protein, anti-AATF antibody from Bethyl (Montgomery, Tex.) was used. To detect rat AATF protein, a rabbit anti-AATF antibody generated using a peptide, RPREADPEADPEEATR, was used. […]
It is established that PERK-mediated eIF2α phosphorylation has role in the up-regulation of its target genes (see, e.g., Harding, H. P., et al., Mol Cell 6, 1099-1108 (2000); Harding et al., Nature 397, 271-274 (1999)). Whether eIF2α phosphorylation could increase AATF expression was determined. Wild-type and Perk^−/− mouse fibroblasts were treated with salubrinal, a compound that increases eIF2α phosphorylation (see Boyce, M., et al., Science (New York, N.Y. 307, 935-939 (2005)), then AATF expression was measured, with Chop expression as a control. AATF expression, as well as Chop expression, was increased by salubrinal treatment in both wild-type and Perk^−/− mouse embryonic fibroblasts (FIG. 2C, upper panel). Immunoblot confirmed that eIF2α phosphorylation levels were increased by salubrinal (FIG. 2C, lower panel).

Chop mRNA = Chop mRNA by real-time PCR in wild-type and Perk−/− mouse embryonic fibroblasts; assay type: cell-based; design: dose or concentration left out as unconfirmed; details: Salubrinal, 16 hr
Method: as §1, §2
It is established that PERK-mediated eIF2α phosphorylation has role in the up-regulation of its target genes (see, e.g., Harding, H. P., et al., Mol Cell 6, 1099-1108 (2000); Harding et al., Nature 397, 271-274 (1999)). Whether eIF2α phosphorylation could increase AATF expression was determined. […]

AATF = AATF immunoblot of cytoplasmic and nuclear extracts from INS-1 832/13 cells; assay type: cell-based, rat; details: Tg 1 μM
Method: Immunoblotting. Cells were lysed for 15 min on ice at 4° C. in ice-cold M-PER buffer (PIERCE, Rockford, Ill.) containing protease inhibitors. The lysates were then cleared by centrifuging the cells at 13,000 g. Lysates were normalized for total protein, separated by SDS-PAGE (15% gel or 5%-20% gradient gel), and transferred onto a polyvinylidene difluoride membrane. To detect human AATF protein, anti-AATF antibody from Bethyl (Montgomery, Tex.) was used. To detect rat AATF protein, a rabbit anti-AATF antibody generated using a peptide, RPREADPEADPEEATR, was used. Anti-actin and anti-myc (9E10) antibodies were purchased from Sigma (St. Louis, Mo.); anti-eIF2α was purchased from Santa Cruz Biotechnology (Santa Cruz, Calif.); anti-phospho-eIF2α, anti-Akt, anti-Akt1, anti-phospho-Akt, anti-Creb, anti-tubulin, and anti-caspase-3 antibodies were purchased from Cell Signaling (Danvers, Mass.).

Akt = assay: Akt, Akt1 and phosphorylated Akt immunoblot in INS-1 832/13 cells; assay type: cell-based, rat; details: INS1 832/13 cells, Tg 1 μM
Method: as §3
It has been proposed that phosphorylation of Akt is important in protecting cells from apoptosis (Srinivasan, S., et al., Diabetes 54, 968-975 (2005). As shown in FIG. 4C (right panel), phosphorylation level of Akt was increased up to 8 hr after treatment, but decreased at 24 hr. To study the relationship between AATF suppression and Akt phosphorylation, AATF expression was suppressed using siRNA directed against AATF in INS-1 832/13 cells and the cells were treated with thapsigargin for 0, 3, and 8 hr, then Akt expression and Akt phosphorylation levels were measured by immunoblot. Both Akt expression and Akt phosphorylation levels were decreased by AATF siRNA (FIG. 4D). […] INS-1 832/13 cells were infected with the virus and Akt1 expression levels were measured.

ATF6 = ATF6 protein level immunoblot in COS7 cells expressing ATF6-HA and WFS1-FLAG; assay type: cell-based; details: MG132 15 μM, 3 hr
Method: To investigate whether the decrease in ATF6 protein level is proteosome-dependent, COS7 cells expressing ATF6-HA or ATF6-HA and WFS1-FLAG were either untreated (UT) or treated with the proteosome inhibitor MG132 (15 μM) for 3 hr. Lysates were immunoblotted with anti-HA, anti-FLAG, and anti-actin antibodies.

## tunicamycin
AATF mRNA [1]
  AATF mRNA expression: up-regulated
AATF mRNA [2]
  attenuation of the induction of AATF: not
  induction of AATF: attenuated

## O[C@@H](CS)[C@@H](O)CS [DTT]
WFS1-ATF6 complex; DTT 1 mM 2 hr, then 3 hour chase in normal media
  interaction of ATF6 and WFS1 post-stress: began to recover
WFS1-ATF6 complex; DTT 1 mM, 3 hours post-treatment, time-dependent
  dissociation of ATF6 from WFS1: almost complete dissociation

## CN[C@@H]1C[C@H]2O[C@@](C)([C@@H]1OC)n1c3ccccc3c3c4c(c5c6ccccc6n2c5c31)C(=O)NC4 [staurosporin]
Akt1 mRNA; INS-1 832/13, neuro2A and mouse embryonic fibroblasts, 16 hr, TM 5 μg/ml, MG132 2 μM, STR 0.05 and 0.01 μM
  increase of Akt1 mRNA expression: not
AATF mRNA [1]
  AATF mRNA expression: not

## O=C(/C=C/c1ccccc1)NC(NC(=S)Nc1cccc2cccnc12)C(Cl)(Cl)Cl (centres unmarked) [salubrinal]
eIF2α phosphorylation
  eIF2α phosphorylation levels: increased
Chop mRNA
  Chop expression: increased
AATF mRNA [2]; wild-type and Perk−/− mouse embryonic fibroblasts, Salubrinal 75 nM, 16 hr
  AATF expression: increased

## C/C=C(/C)C(=O)O[C@H]1C(C)=C2[C@H]([C@@H]1OC(=O)CCCCCCC)[C@@](C)(OC(C)=O)C[C@H](OC(=O)CCC)[C@@]1(O)[C@H]2OC(=O)[C@@]1(C)O [thapsigargin]
AATF
  AATF protein expression in cytoplasmic and nuclear extracts: up-regulated
Akt1 mRNA; INS1 832/13 cells
  time of peak Akt1 mRNA expression during ER stress: 24 h
AATF mRNA [1]
  AATF mRNA expression: up-regulated
AATF mRNA [1]; INS-1 832/13 cells, Tg 0.5 μM, indicated times
  AATF mRNA expression, time course: continued to increase up to 24 hr
AATF mRNA [2]
  attenuation of the induction of AATF: not
  induction of AATF: attenuated
Akt; at 24 hr
  phosphorylation level of Akt: decreased
Akt; up to 8 hr after treatment
  phosphorylation level of Akt: increased

## CC(C)C[C@@H](C=O)NC(=O)[C@H](CC(C)C)NC(=O)[C@H](CC(C)C)NC(=O)OCc1ccccc1 [MG132] (Cbz-Leu-Leu-Leu-aldehyde)
AATF mRNA [1]
  AATF mRNA expression: up-regulated
ATF6
  ATF6 protein levels: almost full recovery
